Patent publication US20250122191A1, “COMPOUNDS AS BCL-2 INHIBITORS” (Fochon Biosciences, Ltd, priority 2021, published 2025)

Test system: RS4;11-BCL-2 G101V cells
Assay: Cell proliferation assay (MTS), RS4;11-BCL-2 G101V engineered cells
Format: cell-based
Details: Homo sapiens, 120 h, read-out: RS4, 11 BCL2-G101V IC50
From the text: MTS testing kit was purchased from Promega (Madison, WI, USA). The RPMI-1640, Fetal bovine serum and Penicillin-Streptomycin were purchased from BI (Biological Industries, Beit Haemek, Israel). Puromycin was purchased from Beyotime (shanghai, China). Dimethyl sulfoxide (DMSO) was purchased from Sigma (St. Louis., MO, USA). RS4;11-BCL-2 G101V (Cobioer Lot. #: CBD2021063013P4), RS4;11-BCL-2 D103E (Cobioer Lot. #: CBD2021063013P4), RS4;11-BCL-2 D103Y (Cobioer Lot. #: CBD2022012101P4) and RS4;11-BCL-2 F104L (Cobioer Lot. #: CBD2021063014P4) cells were cultured in RPMI1640 supplemented with 1 ug/mL puromycin, 100 U/mL Penicillin-Streptomycin and 10% FBS.
To investigate whether a compound is able to inhibit the activity of BCL-2 mutation in cells, a mechanism-based assay using engineered cell lines stably overexpressing BCL-2 mutation (RS4;11-BCL-2 G101V, RS4;11-BCL-2 D103E, RS4;11-BCL-2 D103Y, and RS4;11-BCL-2 F104L) was developed. In this assay, the inhibition of BCL-2 mutation was reflected by the inhibition of cell proliferation of engineered RS4;11 cells. Cells were plated into 96-well plates at optimized cell density (RS4;11-BCL-2 G101V: 5000 cells/well; RS4;11-BCL-2 D103E: 7500 cells/well; RS4;11-BCL-2 D103Y: 7500 cells/well; RS4;11-BCL-2 F104L: 5000 cells/well). Plates were incubated at 37° C., with 5% CO2 for 4 h (RS4;11-BCL-2 G101V, RS4;11-BCL-2 F104L) and 24 h (RS4;11-BCL-2 D103E, RS4;11-BCL-2 D103Y), respectively. Compounds were serially diluted and added to the plates with the final concentrations of 10000, 3333.3, 1111.1, 370.4, 123.5, 41.2, 13.7, 4.6 and 1.5 nM. Plates were incubated at 37° C., with 5% CO2 for 120 h (RS4; 11-BCL-2 G101V, RS4; 11-BCL-2 F104L) and 72 h (RS4;11-BCL-2 D103E, RS4;11-BCL-2 D103Y), respectively. 20 μl MTS was added into each well and the plates were incubated at 37° C., with 5% CO2 exactly for 2 h. The absorbance was measured by a microplate reader at 490 nm. IC50 values were calculated using GraphPad Prism 8.0 software.

IC50 [nM] | SMILES
1 | COc1ncc(CN2CCN(C3CC4(CCN(c5ccc(C(=O)NS(=O)(=O)c6cnc(NC[C@H]7CC[C@](C)(O)CC7)c([N+](=O)[O-])c6)c(Oc6cnc7[nH]cc(F)c7c6)c5)CC4)C3)[C@H](c3ccccc3C(C)C)C2)cn1 [Example 360, 2-((3-fluoro-1H-pyrrolo[2,3-b]pyridin-5-yl)oxy)-N-((6-((((1r,4r)-4-hydroxy-4-methylcyclohexyl)methyl)amino)-5-nitropyridin-3-yl)sulfonyl)-4-(2-((R)-2-(2-isopropylphenyl)-4-((2-methoxypyrimidin-5-yl)methyl)piperazin-1-yl)-7-azaspiro[3.5]nonan-7-yl)benzamide]
1 | COc1nc2[nH]cc(F)c2cc1Oc1cc(N2CCC3(CC2)CC(N2CCN(Cc4ccnc(N)c4)C[C@H]2c2ccccc2C(C)C)C3)ccc1C(=O)NS(=O)(=O)c1cnc(NC[C@H]2CC[C@](C)(O)CC2)c([N+](=O)[O-])c1 [Example 70, 4-(2-((R)-4-((2-aminopyridin-4-yl)methyl)-2-(2-isopropylphenyl)piperazin-1-yl)-7-azaspiro[3.5]nonan-7-yl)-2-((3-fluoro-6-methoxy-1H-pyrrolo[2,3-b]pyridin-5-yl)oxy)-N-((6-((((1r,4r)-4-hydroxy-4-methylcyclohexyl)methyl)amino)-5-nitropyridin-3-yl)sulfonyl)benzamide]
1 | CC(C)c1ccccc1[C@@H]1CN(C2CC2)CCN1C1CC2(CCN(c3ccc(C(=O)NS(=O)(=O)c4cnc(NC[C@H]5CC[C@](C)(O)CC5)c([N+](=O)[O-])c4)c(Oc4cnc5[nH]cc(F)c5c4)c3)CC2)C1 [Example 145, 4-(2-((R)-4-cyclopropyl-2-(2-isopropylphenyl)piperazin-1-yl)-7-azaspiro[3.5]nonan-7-yl)-2-((3-fluoro-1H-pyrrolo[2,3-b]pyridin-5-yl)oxy)-N-((6-((((1r,4r)-4-hydroxy-4-methylcyclohexyl)methyl)amino)-5-nitropyridin-3-yl)sulfonyl)benzamide]
1 | CCOc1nc2[nH]cc(F)c2cc1Oc1cc(N2CCC3(CC2)CC(N2CCN(Cc4ccc(OC)cc4F)C[C@H]2c2ccccc2C(C)C)C3)ccc1C(=O)NS(=O)(=O)c1cnc(NC[C@H]2CC[C@](C)(O)CC2)c([N+](=O)[O-])c1 [Example 106, 2-((6-ethoxy-3-fluoro-1H-pyrrolo[2,3-b]pyridin-5-yl)oxy)-4-(2-((R)-4-(2-fluoro-4-methoxybenzyl)-2-(2-isopropylphenyl)piperazin-1-yl)-7-azaspiro[3.5]nonan-7-yl)-N-((6-((((1r,4r)-4-hydroxy-4-methylcyclohexyl)methyl)amino)-5-nitropyridin-3-yl)sulfonyl)benzamide]
1 | COc1nc2[nH]cc(F)c2cc1Oc1cc(N2CCC3(CC2)CC(N2CCN(Cc4ccc(C#N)cc4)C[C@H]2c2ccccc2C(C)C)C3)ccc1C(=O)NS(=O)(=O)c1cnc(NC[C@H]2CC[C@](C)(O)CC2)c([N+](=O)[O-])c1 [Example 236, 4-(2-((R)-4-(4-cyanobenzyl)-2-(2-isopropylphenyl)piperazin-1-yl)-7-azaspiro[3.5]nonan-7-yl)-2-((3-fluoro-6-methoxy-1H-pyrrolo[2,3-b]pyridin-5-yl)oxy)-N-((6-((((1r,4r)-4-hydroxy-4-methylcyclohexyl)methyl)amino)-5-nitropyridin-3-yl)sulfonyl)benzamide]
1 | COc1nc2[nH]cc(F)c2cc1Oc1cc(N2CCC3(CC2)CC(N2CCN(C4CCOCC4)C[C@H]2c2ccccc2C(C)C)C3)ccc1C(=O)NS(=O)(=O)c1cnc(NC[C@H]2CC[C@](C)(O)CC2)c([N+](=O)[O-])c1 [Example 319, 2-((3-fluoro-6-methoxy-1H-pyrrolo[2,3-b]pyridin-5-yl)oxy)-N-((6-((((1r,4r)-4-hydroxy-4-methylcyclohexyl)methyl)amino)-5-nitropyridin-3-yl)sulfonyl)-4-(2-((R)-2-(2-isopropylphenyl)-4-(tetrahydro-2H-pyran-4-yl)piperazin-1-yl)-7-azaspiro[3.5]nonan-7-yl)benzamide]
1 | COc1nc2[nH]cc(F)c2cc1Oc1cc(N2CCC3(CC2)CC(N2CCN(C4CC4)C[C@H]2c2ccccc2C(C)C)C3)ccc1C(=O)NS(=O)(=O)c1cnc(NC[C@H]2CC[C@](C)(O)CC2)c([N+](=O)[O-])c1 [Example 143, 4-(2-((R)-4-cyclopropyl-2-(2-isopropylphenyl)piperazin-1-yl)-7-azaspiro[3.5]nonan-7-yl)-2-((3-fluoro-6-methoxy-1H-pyrrolo[2,3-b]pyridin-5-yl)oxy)-N-((6-((((1r,4r)-4-hydroxy-4-methylcyclohexyl)methyl)amino)-5-nitropyridin-3-yl)sulfonyl)benzamide]
1 | CC(C)c1ccccc1[C@@H]1CN(C)CCN1C1CC2(CCN(c3ccc(C(=O)NS(=O)(=O)c4cnc(NC[C@H]5CC[C@](C)(O)CC5)c([N+](=O)[O-])c4)c(Oc4cnc5[nH]cc(F)c5c4)c3)CC2)C1 [Example 139, 2-((3-fluoro-1H-pyrrolo[2,3-b]pyridin-5-yl)oxy)-N-((6-((((1r,4r)-4-hydroxy-4-methylcyclohexyl)methyl)amino)-5-nitropyridin-3-yl)sulfonyl)-4-(2-((R)-2-(2-isopropylphenyl)-4-methylpiperazin-1-yl)-7-azaspiro[3.5]nonan-7-yl)benzamide]
1 | COc1ncc(CN2CCN(C3CC4(CCN(c5ccc(C(=O)NS(=O)(=O)c6cnc(NC[C@H]7CC[C@](C)(O)CC7)c([N+](=O)[O-])c6)c(Oc6cc7c(F)c[nH]c7nc6OC)c5)CC4)C3)[C@H](c3ccccc3C(C)C)C2)cn1 [Example 359, 2-((3-fluoro-6-methoxy-1H-pyrrolo[2,3-b]pyridin-5-yl)oxy)-N-((6-((((1r,4r)-4-hydroxy-4-methylcyclohexyl)methyl)amino)-5-nitropyridin-3-yl)sulfonyl)-4-(2-((R)-2-(2-isopropylphenyl)-4-((2-methoxypyrimidin-5-yl)methyl)piperazin-1-yl)-7-azaspiro[3.5]nonan-7-yl)benzamide]
1 | CC(C)c1ccccc1[C@@H]1CN(C2CCC(O)CC2)CCN1C1CC2(CCN(c3ccc(C(=O)NS(=O)(=O)c4cnc(NC[C@H]5CC[C@](C)(O)CC5)c([N+](=O)[O-])c4)c(Oc4cnc5[nH]cc(F)c5c4)c3)CC2)C1 (stereo partly drawn) [Example 333, 2-((3-fluoro-1H-pyrrolo[2,3-b]pyridin-5-yl)oxy)-N-((6-((((1r,4r)-4-hydroxy-4-methylcyclohexyl)methyl)amino)-5-nitropyridin-3-yl)sulfonyl)-4-(2-((R)-4-(4-hydroxycyclohexyl)-2-(2-isopropylphenyl)piperazin-1-yl)-7-azaspiro [3.5]nonan-7-yl)benzamide]
1 | COc1nc2[nH]cc(F)c2cc1Oc1cc(N2CCC3(CC2)CC(N2CCN(CC4CCOCC4)C[C@H]2c2ccccc2C(C)C)C3)ccc1C(=O)NS(=O)(=O)c1cnc(NC[C@H]2CC[C@](C)(O)CC2)c([N+](=O)[O-])c1 [Example 317, 2-((3-fluoro-6-methoxy-1H-pyrrolo[2,3-b]pyridin-5-yl)oxy)-N-((6-((((1r,4r)-4-hydroxy-4-methylcyclohexyl)methyl)amino)-5-nitropyridin-3-yl)sulfonyl)-4-(2-((R)-2-(2-isopropylphenyl)-4-((tetrahydro-2H-pyran-4-yl)methyl)piperazin-1-yl)-7-azaspiro[3.5]nonan-7-yl)benzamide]
